Reference: patent EP0429999A1, “Novel cephalosporins, process for their preparation and their use as medicaments” (BAYER AG, priority 1989, dated 1991)
≈ marks a conversion by molar mass, not a printed value.

Assays:
Experiment in all cases: MIC (MHK), agar dilution on Iso-Sensitest agar, multipoint inoculator
Assay type in all cases: cell-based
[1] = test system: Klebs. 6097; details: strain Klebs. 6097; 37°C, read after ca. 20 h, ca. 10^4 colony-forming particles per inoculation point
Source text: (§1) Die minimalen Hemmkonzentrationen (MHK) wurden per Reihenverdünnungsverfahren auf Iso-Sensitest Agar (Oxoid) bestimmt. Für jede Prüfsubstanz wurde eine Reihe von Agarplatten hergestellt, die bei jeweils doppelter Verdünnung abfallende Konzentrationen des Wirkstoffes enthielten. Die Agarplatten wurden mit einem MultipointInokulator (Denley) beimpft. Zum Beimpfen wurden Übernachtkulturen der Erreger verwandt, die zuvor so verdünnt wurden, daß jeder Impfpunkt ca. 10^4 koloniebildende Partikel enthielt. Die beimpften Agarplatten wurden bei 37°C bebrütet, und das Keimwachstum wurde nach ca. 20 Stunden abgelesen. Der MHK-Wert (µg/ml) gibt die niedrigste Wirkstoffkonzentration an, bei der mit bloßem Auge kein Keimwachstum zu erkennen war.
(§2) MHK-Werte: Agarverdünnung/Multipoint

[2] = test system: Strept. faec. 27101; details: strain Strept. faec. 27101; 37°C, read after ca. 20 h, ca. 10^4 colony-forming particles per inoculation point
Source text: as §1, §2

[3] = test system: E. coli A 261; details: Escherichia coli, A261; strain E. coli A 261; 37°C, read after ca. 20 h, ca. 10^4 colony-forming particles per inoculation point
Source text: as §1, §2

[4] = test system: Staph. aur. 25455; details: strain Staph. aur. 25455; 37°C, read after ca. 20 h, ca. 10^4 colony-forming particles per inoculation point
Source text: as §1, §2

[5] = test system: Enterococc. 27185; details: strain Enterococc. 27185; 37°C, read after ca. 20 h, ca. 10^4 colony-forming particles per inoculation point
Source text: as §1, §2

[6] = test system: Staph. epi. 25185; details: strain Staph. epi. 25185; 37°C, read after ca. 20 h, ca. 10^4 colony-forming particles per inoculation point
Source text: as §1, §2

MIC [1]: 2 µg/mL (≈ 4.43 µM)
MIC [2]: 16 µg/mL (≈ 35.4 µM)
MIC [3]: 4 µg/mL (≈ 8.86 µM)
MIC [4]: ≤ 0.25 µg/mL
MIC [5]: 2 µg/mL (≈ 4.43 µM)
MIC [6]: ≤ 0.25 µg/mL
Structure (SMILES): C/C=C\C1=C(C(=O)O)N2C(=O)[C@@H](NC(=O)[C@H](N)c3cc4sc(N)nc4s3)[C@H]2SC1 [Beispiel 13a]
